Assays:
[1] = tested on: wheat; experiment: Test A postemergence; type: in vivo, Triticum aestivum
Outline: (§1)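 Scoring: eye-based comparison with untreated controls, 0 for no effect through 100 for complete control, at about day 10. Treatments: directed soil spray preemergence; foliar spray postemergence on 2–10 cm plants at the one- to two-leaf stage. Medium: loam soil with sand.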

[2] = tested on: corn; experiment: Test A preemergence; type: in vivo, Zea mays
Outline: as §1

[3] = tested on: large (Lg) crabgrass; experiment: Test A preemergence; type: in vivo, Digitaria sanguinalis
Outline: as §1

[4] = tested on: corn; experiment: Test A postemergence; type: in vivo, Zea mays
Outline: as §1

[5] = tested on: rice; experiment: Test B flooded paddy test; type: in vivo, Oryza sativa; details: Flood, 250 g ai/ha; 0 to 100 scale where 0 is no effect and 100 is complete control
Outline: (§2)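 Scores from 0 (no effect) to 100 (complete control) are visual comparisons with controls, taken 13 to 15 days after compound was applied into floodwater 3 cm deep around 2-leaf plants.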

[6] = tested on: pigweed; experiment: Test A postemergence; type: in vivo, Amaranthus retroflexus
Outline: as §1

[7] = tested on: barnyardgrass; experiment: Test A preemergence; type: in vivo, Echinochloa crus-galli
Outline: as §1

[8] = tested on: giant foxtail; experiment: Test A postemergence; type: in vivo, Setaria faberii
Outline: as §1

[9] = tested on: morningglory; experiment: Test A postemergence; type: in vivo, Ipomoea spp.
Outline: as §1

[10] = tested on: large (Lg) crabgrass; experiment: Test A postemergence; type: in vivo, Digitaria sanguinalis
Outline: as §1

[11] = tested on: velvetleaf; experiment: Test A postemergence; type: in vivo, Abutilon theophrasti
Outline: as §1

[12] = tested on: Heteranthera limosa; experiment: Test B flooded paddy test; type: in vivo; details: Flood, 250 g ai/ha; 0 to 100 scale where 0 is no effect and 100 is complete control
Outline: as §2

[13] = tested on: velvetleaf; experiment: Test A preemergence; type: in vivo, Abutilon theophrasti
Outline: as §1

[14] = tested on: sedge, umbrella; experiment: Test B flooded paddy test; type: in vivo, Cyperus difformis; details: Flood, 250 g ai/ha; 0 to 100 scale where 0 is no effect and 100 is complete control
Outline: as §2

[15] = tested on: giant foxtail; experiment: Test A preemergence; type: in vivo, Setaria faberii
Outline: as §1

[16] = tested on: barnyardgrass; experiment: Test B flooded paddy test; type: in vivo, Echinochloa crus-galli; details: Flood, 250 g ai/ha; 0 to 100 scale where 0 is no effect and 100 is complete control
Experimental: Plant species in the flooded paddy test selected from rice (Oryza sativa), sedge, umbrella (small-flower umbrella sedge, Cyperus difformis), (Heteranthera limosa), and barnyardgrass (Echinochloa crus-galli) were grown to the 2-leaf stage for testing. At time of treatment, test pots were flooded to 3 cm above the soil surface, treated by application of test compounds directly to the paddy water, and then maintained at that water depth for the duration of the test. Treated plants and controls were maintained in a greenhouse for 13 to 15 days, after which time all species were compared to controls and visually evaluated. Plant response ratings, summarized in Table B, are based on a scale of 0 to 100 where 0 is no effect and 100 is complete control. A dash (-) response means no test result.

[17] = tested on: morningglory; experiment: Test A preemergence; type: in vivo, Ipomoea spp.
Outline: as §1

[18] = tested on: wheat; experiment: Test A preemergence; type: in vivo, Triticum aestivum
Outline: as §1

[19] = tested on: barnyardgrass; experiment: Test A postemergence; type: in vivo, Echinochloa crus-galli
Outline: as §1

[20] = tested on: pigweed; experiment: Test A preemergence; type: in vivo, Amaranthus retroflexus
Outline: as §1

[21] = 125 g ai/ha, 0 to 100 scale where 0 is no effect and 100 is complete control
[22] = 500 g ai/ha, 0 to 100 scale, 0 no effect, 100 complete control
[23] = 500 g ai/ha, 0 to 100 scale, 0 no effect, 100 complete control, approx. 10 days
[24] = 1000 g ai/ha, 0 to 100 scale, 0 no effect, 100 complete control
[25] = 1000 g ai/ha, 0 to 100 scale, 0 no effect, 100 complete control, approx. 10 days

| Compound | Plant response rating, Wheat [1, 21] | Plant response rating, Wheat [1, 22] | Corn plant response rating [2, 23] | Crabgrass, Large plant response rating [3, 23] | Plant response rating, Corn [4, 21] | Plant response rating, Corn [4, 22] | Plant response rating, Rice [5] | Plant response rating, Pigweed [6, 21] | Plant response rating, Pigweed [6, 22] | Barnyardgrass plant response rating [7, 23] | Plant response rating, Foxtail, Giant [8, 21] | Plant response rating, Foxtail, Giant [8, 22] | Plant response rating, Morningglory [9, 21] | Plant response rating, Morningglory [9, 22] | Plant response rating, Crabgrass, Large [10, 21] | Plant response rating, Crabgrass, Large [10, 22] | Plant response rating, Velvetleaf [11, 21] | Plant response rating, Ducksalad [12] | Plant response rating, Sedge, Umbrella [14] | Plant response rating, Barnyardgrass [16] | other results |
| --- | --- | --- | --- | --- | --- | --- | --- | --- | --- | --- | --- | --- | --- | --- | --- | --- | --- | --- | --- | --- | --- |
| FC(F)(F)c1cnc(Oc2ccccc2-n2cc(Cl)cn2)nc1 [Compound 6] | 40 | 90 | 20 | 100 | 20 | 60 | 15 | 100 | 100 | 90 | 80 | 100 | 40 | 70 | 50 | 100 | 100 | 65 | 55 | 0 | Corn plant response rating [2, 21]: 0; Crabgrass, Large plant response rating [3, 21]: 90; Barnyardgrass plant response rating [7, 21]: 20; Plant response rating, Velvetleaf [11, 22]: 100; Velvetleaf plant response rating [13, 21]: 100; Velvetleaf plant response rating [13, 23]: 100; Foxtail, Giant plant response rating [15, 21]: 90; Foxtail, Giant plant response rating [15, 23]: 100; Morningglory plant response rating [17, 21]: 0; Morningglory plant response rating [17, 23]: 10; Wheat plant response rating [18, 21]: 0; Wheat plant response rating [18, 23]: 30; Plant response rating, Barnyardgrass [19, 21]: 40; Plant response rating, Barnyardgrass [19, 22]: 100; Pigweed plant response rating [20, 21]: 100; Pigweed plant response rating [20, 23]: 100 |
| Fc1cnc(Oc2ccccc2-n2cc(Cl)cn2)nc1 [Compound 11] | 0 | 20 | 30 | 100 | 10 | 50 | 0 | 100 | 100 | 100 | 70 | 90 | 60 | 100 | 70 | 90 | 100 | 50 | 0 | 0 | Corn plant response rating [2, 21]: 0; Crabgrass, Large plant response rating [3, 21]: 90; Barnyardgrass plant response rating [7, 21]: 70; Plant response rating, Velvetleaf [11, 22]: 100; Velvetleaf plant response rating [13, 21]: 90; Velvetleaf plant response rating [13, 23]: 100; Foxtail, Giant plant response rating [15, 21]: 90; Foxtail, Giant plant response rating [15, 23]: 100; Morningglory plant response rating [17, 21]: 30; Morningglory plant response rating [17, 23]: 60; Wheat plant response rating [18, 21]: 0; Wheat plant response rating [18, 23]: 0; Plant response rating, Barnyardgrass [19, 21]: 10; Plant response rating, Barnyardgrass [19, 22]: 90; Pigweed plant response rating [20, 21]: 90; Pigweed plant response rating [20, 23]: 100 |
| Brc1cnc(Oc2ccccc2-n2cccn2)nc1 [Compound 13] |  |  |  |  |  |  | 0 |  |  |  |  |  |  |  |  |  |  | 30 | 0 | 0 | Plant response rating, Wheat [1, 24]: 60; Plant response rating, Corn [2, 24]: 0; Plant response rating, Crabgrass, Large [3, 24]: 100; Plant response rating, Corn [4, 24]: 40; Plant response rating, Pigweed [6, 24]: 100; Plant response rating, Barnyardgrass [7, 24]: 80; Plant response rating, Foxtail, Giant [8, 24]: 100; Plant response rating, Morningglory [9, 24]: 90; Plant response rating, Crabgrass, Large [10, 24]: 90; Plant response rating, Velvetleaf [11, 24]: 100; Velvetleaf plant response rating [13, 25]: 100; Foxtail, Giant plant response rating [15, 25]: 100; Morningglory plant response rating [17, 25]: 0; Wheat plant response rating [18, 25]: 20; Plant response rating, Barnyardgrass [19, 24]: 90; Pigweed plant response rating [20, 25]: 100 |
| FC(F)(F)c1cnc(Oc2ccccc2-n2cc(C(F)(F)F)cn2)nc1 [Compound 17] | 0 | 50 | 0 | 90 | 0 | 40 | 25 | 70 | 100 | 60 | 20 | 90 | 20 | 50 | 20 | 90 | 50 | 75 | 90 | 0 | Corn plant response rating [2, 21]: 0; Crabgrass, Large plant response rating [3, 21]: 40; Barnyardgrass plant response rating [7, 21]: 50; Plant response rating, Velvetleaf [11, 22]: 100; Velvetleaf plant response rating [13, 21]: 70; Velvetleaf plant response rating [13, 23]: 90; Foxtail, Giant plant response rating [15, 21]: 60; Foxtail, Giant plant response rating [15, 23]: 90; Morningglory plant response rating [17, 21]: 0; Morningglory plant response rating [17, 23]: 20; Wheat plant response rating [18, 21]: 0; Wheat plant response rating [18, 23]: 70; Plant response rating, Barnyardgrass [19, 21]: 0; Plant response rating, Barnyardgrass [19, 22]: 20; Pigweed plant response rating [20, 21]: 100; Pigweed plant response rating [20, 23]: 100 |
| Clc1cnc(Oc2ccccc2-n2cc(Br)c(Br)n2)nc1 [Compound 19] | 0 | 0 | 0 | 90 | 0 | 30 | 20 | 30 | 90 | 20 | 0 | 30 | 0 | 40 | 0 | 20 | 30 | 40 | 30 | 0 | Plant response rating, Corn [2, 21]: 0; Plant response rating, Crabgrass, Large [3, 21]: 0; Plant response rating, Barnyardgrass [7, 21]: 0; Plant response rating, Velvetleaf [11, 22]: 60; Plant response rating, Velvetleaf [13, 21]: 0; Velvetleaf plant response rating [13, 23]: 20; Plant response rating, Foxtail, Giant [15, 21]: 20; Foxtail, Giant plant response rating [15, 23]: 90; Plant response rating, Morningglory [17, 21]: 0; Morningglory plant response rating [17, 23]: 0; Plant response rating, Wheat [18, 21]: 0; Wheat plant response rating [18, 23]: 0; Plant response rating, Barnyardgrass [19, 21]: 0; Plant response rating, Barnyardgrass [19, 22]: 20; Plant response rating, Pigweed [20, 21]: 0; Pigweed plant response rating [20, 23]: 100 |
